Blank lines part the entries; values can stand above or below the compound they belong to.
Key:
[1] = Inhibition of endothelin converting enzyme (unknown origin); set-up: species or system Homo sapiens
[2] = molecular target: T1, Endothelin receptor type B (Homo sapiens, UniProt P24530); test: Displacement of [I125]ET1 from Homo sapiens (human) ETB receptor expressed in CHO cells; assay type: cell-based
T1 sequence (P24530 whole entry): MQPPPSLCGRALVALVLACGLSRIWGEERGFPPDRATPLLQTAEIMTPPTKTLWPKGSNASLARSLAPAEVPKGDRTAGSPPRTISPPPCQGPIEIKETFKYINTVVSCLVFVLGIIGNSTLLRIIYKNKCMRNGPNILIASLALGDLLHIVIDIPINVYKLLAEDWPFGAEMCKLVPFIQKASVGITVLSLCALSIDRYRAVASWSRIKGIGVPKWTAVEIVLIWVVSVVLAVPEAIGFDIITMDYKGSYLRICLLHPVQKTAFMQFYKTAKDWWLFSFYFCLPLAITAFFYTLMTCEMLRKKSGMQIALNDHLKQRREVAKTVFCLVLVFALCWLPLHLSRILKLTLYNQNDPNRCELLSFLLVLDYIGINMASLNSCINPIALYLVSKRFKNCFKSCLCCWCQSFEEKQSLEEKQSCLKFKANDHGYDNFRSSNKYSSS

[3] = molecular target: T2, Endothelin-1 receptor (Homo sapiens, UniProt P25101); test: Displacement of [I125]ET1 from Homo sapiens (human) ETA receptor expressed in CHO cells; assay type: cell-based
T2 sequence (P25101 whole entry): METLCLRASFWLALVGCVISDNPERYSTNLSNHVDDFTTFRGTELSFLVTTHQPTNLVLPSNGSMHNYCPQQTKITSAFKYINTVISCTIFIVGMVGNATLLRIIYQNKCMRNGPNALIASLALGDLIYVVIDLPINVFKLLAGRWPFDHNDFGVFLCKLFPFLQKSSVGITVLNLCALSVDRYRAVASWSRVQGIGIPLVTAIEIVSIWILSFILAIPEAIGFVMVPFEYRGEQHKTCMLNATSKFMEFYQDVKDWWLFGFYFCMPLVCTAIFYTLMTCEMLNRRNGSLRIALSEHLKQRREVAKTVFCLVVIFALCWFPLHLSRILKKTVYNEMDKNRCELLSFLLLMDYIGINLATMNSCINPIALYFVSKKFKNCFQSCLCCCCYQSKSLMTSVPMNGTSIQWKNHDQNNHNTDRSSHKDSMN

[4] = Fraction unbound in Rattus norvegicus Sprague-Dawley (rat) at 2 mg/kg, iv; assay type: ADME, organism-based; set-up: dose 2 mg/kg, route intravenous; conditions: in vivo
[5] = Permeability of the compound across Homo sapiens (human) Caco2 cells; assay type: ADME, cell-based; conditions: Caco-2, read-out: permeability
[6] = test system: Rattus norvegicus; test: Unbound clearance in Rattus norvegicus Sprague-Dawley (rat) at 2 mg/kg, iv; assay type: ADME, organism-based; set-up: dose 2 mg/kg, route intravenous; conditions: in vivo
[7] = Volume of distribution in Rattus norvegicus Sprague-Dawley (rat) at 2 mg/kg, iv; assay type: ADME, organism-based; set-up: dose 2 mg/kg, route intravenous; conditions: in vivo
[8] = Drug absorption in Rattus norvegicus Sprague-Dawley (rat) at 2 mg/kg, iv; assay type: ADME, organism-based; set-up: dose 2 mg/kg, route intravenous; conditions: in vivo, read-out: Drug absorption
[9] = test system: Canis familiaris; test: Cardiotoxicity in Canis lupus familiaris (dog) assessed as change in heart rate at 1.5 to 15 mg/kg, po; assay type: toxicity, organism-based; set-up: dose 1.5-15 mg/kg, route oral; conditions: in vivo
[10] = test system: Rattus norvegicus; test: Tmax in Rattus norvegicus (rat) assessed as (S)-3-(1-(benzo[d][1,3]dioxol-5-yl)-2-(2-methoxy-4-methylphenylsulfonamido)-2-oxoethyl)-1-methyl-1H-indole-6-carboxylic acid level at 2 mg/kg, po; assay type: ADME, organism-based; set-up: dose 2 mg/kg, route oral; conditions: in vivo
[11] = Tmax in Rattus norvegicus (rat) at 2 mg/kg, po; assay type: ADME, organism-based; set-up: dose 2 mg/kg, route oral; conditions: in vivo
[12] = test system: Liver cytosol; test: Prodrug conversion in Sus scrofa (pig) liver cytosol assessed as (S)-3-(1-(benzo[d][1,3]dioxol-5-yl)-2-(2-methoxy-4-methylphenylsulfonamido)-2-oxoethyl)-1-methyl-1H-indole-6-carboxylic acid formation; assay type: ADME, tissue-based
[13] = Elimination half life in Rattus norvegicus (rat) at 2 mg/kg, iv; assay type: ADME, organism-based; set-up: dose 2 mg/kg, route intravenous; conditions: in vivo, read-out: beta t1/2 (converted)
[14] = test system: Rattus norvegicus; test: Drug absorption in Rattus norvegicus (rat) assessed as (S)-3-(1-(benzo[d][1,3]dioxol-5-yl)-2-(2-methoxy-4-methylphenylsulfonamido)-2-oxoethyl)-1-methyl-1H-indole-6-carboxylic acid level at 2 mg/kg; assay type: ADME, organism-based; set-up: dose 2 mg/kg; conditions: in vivo
[15] = test system: Rattus norvegicus; test: Prodrug conversion in Rattus norvegicus (rat) assessed as (S)-3-(1-(benzo[d][1,3]dioxol-5-yl)-2-(2-methoxy-4-methylphenylsulfonamido)-2-oxoethyl)-1-methyl-1H-indole-6-carboxylic acid level at 2 mg/kg, iv; assay type: ADME, organism-based; set-up: dose 2 mg/kg, route intravenous; conditions: in vivo
[16] = test system: Canis familiaris; test: Cardiotoxicity in Canis lupus familiaris (dog) assessed as change in ECG at 1.5 to 15 mg/kg, po; assay type: toxicity, organism-based; set-up: dose 1.5-15 mg/kg, route oral; conditions: in vivo
[17] = Half life in Canis lupus familiaris (dog) liver microsome at 1 uM; assay type: ADME; conditions: liver microsomes
[18] = test system: Rattus norvegicus; test: Apparent elimination half life in Rattus norvegicus (rat) assessed as (S)-3-(1-(benzo[d][1,3]dioxol-5-yl)-2-(2-methoxy-4-methylphenylsulfonamido)-2-oxoethyl)-1-methyl-1H-indole-6-carboxylic acid level at 2 mg/kg, po; assay type: ADME, organism-based; set-up: dose 2 mg/kg, route oral; conditions: in vivo
[19] = test system: Rattus norvegicus; test: Prodrug conversion in Rattus norvegicus (rat) assessed as (S)-3-(1-(benzo[d][1,3]dioxol-5-yl)-2-(2-methoxy-4-methylphenylsulfonamido)-2-oxoethyl)-1-methyl-1H-indole-6-carboxylic acid level at 2 mg/kg, po; assay type: ADME, organism-based; set-up: dose 2 mg/kg, route oral; conditions: in vivo
[20] = Volume of distribution in Rattus norvegicus (rat) at 2 mg/kg, iv; assay type: ADME, organism-based; set-up: dose 2 mg/kg, route intravenous; conditions: in vivo
[21] = Plasma clearance in Rattus norvegicus (rat) at 2 mg/kg, iv; assay type: ADME, organism-based; set-up: dose 2 mg/kg, route intravenous
[22] = Half life in Rattus norvegicus (rat) liver microsome at 1 uM; assay type: ADME; conditions: liver microsomes
[23] = test system: Rattus norvegicus; test: Cmax in Rattus norvegicus (rat) assessed as (S)-3-(1-(benzo[d][1,3]dioxol-5-yl)-2-(2-methoxy-4-methylphenylsulfonamido)-2-oxoethyl)-1-methyl-1H-indole-6-carboxylic acid level at 2 mg/kg, po; assay type: ADME, organism-based; set-up: dose 2 mg/kg, route oral; conditions: in vivo
[24] = test system: Liver cytosol; test: Prodrug conversion in Homo sapiens (human) liver cytosol assessed as (S)-3-(1-(benzo[d][1,3]dioxol-5-yl)-2-(2-methoxy-4-methylphenylsulfonamido)-2-oxoethyl)-1-methyl-1H-indole-6-carboxylic acid formation; assay type: ADME, tissue-based
[25] = test system: Canis familiaris; test: Cardiotoxicity in Canis lupus familiaris (dog) assessed as change in left ventricular contractility at 1.5 to 15 mg/kg, po; assay type: toxicity, organism-based, Heart left ventricle; set-up: dose 1.5-15 mg/kg, route oral; conditions: in vivo
[26] = test system: Liver cytosol; test: Prodrug conversion in male Rattus norvegicus (rat) liver cytosol assessed as (S)-3-(1-(benzo[d][1,3]dioxol-5-yl)-2-(2-methoxy-4-methylphenylsulfonamido)-2-oxoethyl)-1-methyl-1H-indole-6-carboxylic acid formation; assay type: ADME, tissue-based
[27] = Half life in Homo sapiens (human) liver microsome at 1 uM; assay type: ADME; conditions: liver microsomes
[28] = Cmax in Rattus norvegicus (rat) at 2 mg/kg, po; assay type: ADME, organism-based; set-up: dose 2 mg/kg, route oral; conditions: in vivo
[29] = test system: Rattus norvegicus; test: Toxicity in Rattus norvegicus (rat) at 30 mg/kg, po QD for 5 days; assay type: organism-based; set-up: dose 30 mg/kg, route oral; conditions: in vivo, 120 h

SMILES: CCn1cc(C(C(=O)NS(=O)(=O)c2ccc(C(C)C)cc2)c2ccc3c(c2)OCO3)c2ccccc21 (racemic)
IC50 [3]: 560 nM

SMILES: Cn1cc(C(C(=O)NS(=O)(=O)c2ccc(CC(=O)O)cc2)c2ccc3c(c2)OCO3)c2ccc(C(N)=O)cc21 (racemic)
Fu [4]: 0.048%
Papp [5]: < 0.5 ×10⁻⁶ cm/s
IC50 [2]: 574 nM
CL free [6]: 138 mL/min/kg
Vd [7]: 0.3 L/kg
Fa [8]: < 5%
IC50 [3]: 1.7 nM

SMILES: Cc1ccc(S(=O)(=O)NC(=O)C(c2ccc3c(c2)OCO3)c2cn(C)c3cc(CO)ccc23)cc1 (racemic)
IC50 [3]: 34 nM

SMILES: COc1cc(C)ccc1S(=O)(=O)NC(=O)C(c1ccc2c(c1)OCO2)c1cn(C)c2cc(C#N)ccc12 (racemic)
Fu [4]: 0.002%
Papp [5]: 20 ×10⁻⁶ cm/s
IC50 [2]: 421 nM
CL free [6]: 19000 mL/min/kg
Vd [7]: 2.8 L/kg
IC50 [3]: 11 nM

SMILES: CCOC(=O)c1ccc2c(C(C(=O)NS(=O)(=O)c3ccc(C)cc3OC)c3ccc4c(c3)OCO4)cn(C)c2c1 (racemic)
IC50 [2]: 240 nM
IC50 [3]: 18 nM

SMILES: CCn1cc(C(C(=O)NS(=O)(=O)c2ccc(C(C)C)cc2)c2ccc3c(c2)OCO3)c2ccc(C(=O)O)cc21 (racemic)
IC50 [2]: 69 nM

SMILES: CC(C)c1ccc(S(=O)(=O)NC(=O)C(c2ccc3c(c2)OCO3)c2cn(C)c3cc(C(N)=O)ccc23)cc1 (racemic)
IC50 [2]: 15 nM

Further lines, with some results ahead:

IC50 [1]: 325000 nM
IC50 [2]: 347 nM
Ki [2]: 1460 nM
IC50 [3]: 4.2 nM
SMILES: COc1cc(C)ccc1S(=O)(=O)NC(=O)[C@@H](c1ccc2c(c1)OCO2)c1cn(C)c2cc(C(=O)O)ccc12

Fu [4]: 0.01%
Papp [5]: 1.2 ×10⁻⁶ cm/s
IC50 [2]: 245 nM
CL free [6]: 7200 mL/min/kg
Vd [7]: 1.2 L/kg
Fa [8]: 55%
IC50 [3]: 8.7 nM
SMILES: COc1cc(C)ccc1S(=O)(=O)NC(=O)C(c1ccc2c(c1)OCO2)c1cn(C)c2cc(CO)ccc12 (configuration not stated)

Tmax [10]: 4 h
Tmax [11]: 0.25 h
Drug metabolism [12]: Active
half-life [13]: 1.1 h
Drug absorption [14]: 36%
Drug metabolism [15]: Active
IC50 [1]: 765000 nM
IC50 [2]: 683 nM
Ki [2]: 1500 nM
half-life at 1 µM [17]: > 2 h
betat1/2(app) [18]: 9 h
Drug metabolism [19]: Active
Vd [20]: 0.16 L/kg
clearance [21]: 1.7 mL/min/kg
half-life at 1 µM [22]: > 2 h
Cmax [23]: 83 ng/mL
Drug metabolism [24]: Active
IC50 [3]: 2.2 nM
Ki [3]: 2.2 nM
Drug metabolism [26]: Active
half-life at 1 µM [27]: > 2 h
Cmax [28]: 48 ng/mL
SMILES: COc1cc(C)ccc1S(=O)(=O)NC(=O)[C@@H](c1ccc2c(c1)OCO2)c1cn(C)c2cc(CO)ccc12
Activity [9]: Non-toxic
Activity [16]: Non-toxic
Activity [25]: Non-toxic
Activity [29]: Non-toxic

Fu [4]: 0.007%
Papp [5]: 1.6 ×10⁻⁶ cm/s
IC50 [2]: 275 nM
CL free [6]: 1329 mL/min/kg
Vd [7]: 0.6 L/kg
Fa [8]: < 5%
SMILES: COc1cc(C)ccc1S(=O)(=O)NC(=O)C(c1ccc2c(c1)OCO2)c1cn(C)c2cc(C(N)=O)ccc12 (racemic)

Fu [4]: 0.01%
Papp [5]: < 0.5 ×10⁻⁶ cm/s
IC50 [2]: 650 nM
CL free [6]: 609 mL/min/kg
Vd [7]: 0.6 L/kg
Fa [8]: < 5%
IC50 [3]: 5.3 nM
SMILES: COc1cc(C)ccc1S(=O)(=O)NC(=O)C(c1ccc2c(c1)OCO2)c1cn(C)c2cc(C(=O)O)ccc12 (racemic)

IC50 [2]: 217 nM
IC50 [3]: 46 nM
SMILES: COc1cc(C)ccc1S(=O)(=O)NC(=O)C(c1ccc2c(c1)OCO2)c1cn(C)c2cc(Cl)ccc12 (racemic)

Fu [4]: 0.005%
Papp [5]: 5 ×10⁻⁶ cm/s
IC50 [2]: 219 nM
CL free [6]: 1740 mL/min/kg
Vd [7]: 4 L/kg
Fa [8]: 100%
IC50 [3]: 14 nM
SMILES: COc1cc(C)ccc1S(=O)(=O)NC(=O)C(c1ccc2c(c1)OCO2)c1cn(C)c2cc(F)ccc12 (racemic)

Fu [4]: 0.002%
Papp [5]: 20 ×10⁻⁶ cm/s
IC50 [2]: 906 nM
CL free [6]: 17000 mL/min/kg
Vd [7]: 5 L/kg
Fa [8]: 70%
IC50 [3]: 1.4 nM
SMILES: COc1cc(C)ccc1S(=O)(=O)NC(=O)C(c1ccc2c(c1)OCO2)c1cn(C)c2cc(C(C)=O)ccc12 (racemic)

IC50 [2]: 1140 nM
IC50 [3]: 8.8 nM
SMILES: COCc1ccc2c(C(C(=O)NS(=O)(=O)c3ccc(C)cc3OC)c3ccc4c(c3)OCO4)cn(C)c2c1 (racemic)

— ChEMBL document CHEMBL3045872, “The Design and Synthesis of a Novel, Orally Active, Selective ETA Antagonist” (Med Chem Res, 2004)
